# Source: patent US20120004244A1, “Bis Aromatic Compounds for Use as LTC4 Synthase Inhibitors” (BIOLIPOX AB, priority 2009, published 2012)
# Molecular target: T1, Recombinant human LTC4 synthase (Homo sapiens, UniProt Q16873)
# T1 construct: made in house; host or cells: Pichia pastoris ('Piccia pastoralis' [sic])
# T1 sequence (Q16873 1-150): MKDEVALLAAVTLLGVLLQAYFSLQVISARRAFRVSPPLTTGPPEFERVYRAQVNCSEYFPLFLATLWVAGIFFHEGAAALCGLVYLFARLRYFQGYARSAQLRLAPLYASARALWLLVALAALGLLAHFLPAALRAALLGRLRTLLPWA
# Experiment: LTC4 synthase in vitro assay (LTA4 to LTC4, HTRF detection)
# Assay type: biochemical
# Conditions: for inhibition at 10 µM: 5 min, total concentration of title compound in the assay 10 μM
# Procedure: In the assay, LTC4 synthase catalyses the reaction where the substrate LTA4 is converted to LTC4. Recombinant human LTC4 synthase is expressed in Piccia pastoralis and the purified enzyme is dissolved in 25 mM tris-buffer pH 7.8 supplemented with 0.1 mM glutathione (GSH) and stored at −80° C. The assay is performed in phosphate buffered saline (PBS) pH 7.4 and 5 mM GSH in 384-well plates.
# The following is added chronologically to each well:
# 1.48 μL LTC4 synthase in PBS with 5 mM GSH. The total protein concentration in this solution is 0.5 μg/mL. 2. 1 μL inhibitor in DMSO (final concentration 10 μM). 3. Incubation of the plate at room temperature for 10 min. 4. 1 μL LTA4 (final concentration 2.5 μM). 5. Incubation of the plate at room temperature for 5 min. 6. 10 μL of the incubation mixture is analysed using homogenous time resolved fluorescent (HTRF) detection.
IC50,inhibition at 10 µM,SMILES
138 nM,,"CN(c1ccc(Cl)cc1)c1ccc(C(=O)c2ccc(Nc3ccc(C(O)(C(F)(F)F)C(F)(F)F)cc3)c(C(=O)O)c2)nc1 [2:17, 5-{5-[(4-Chlorophenyl)(methyl)amino]picolinoyl}-2-[4-(1,1,1,3,3,3-hexafluoro-2-hydroxy-2-propyl)phenylamino]benzoic acid]"
188 nM,,"CN(c1ccc(Cl)cc1)c1ccc(C(=O)c2ccc(Nc3cccc(S(C)(=O)=O)c3)c(C(=O)O)c2)nc1 [2:18, 5-{5-[(4-Chlorophenyl)(methyl)amino]picolinoyl}-2-(3-methylsulfonylphenyl-amino)benzoic acid]"
149 nM,,"CN(c1ccc(Cl)cc1)c1ccc(C(=O)c2ccc(NC3CCSCC3)c(C(=O)O)c2)nc1 [2:19, 5-{5-[(4-Chlorophenyl)(methyl)amino]picolinoyl}-2-(4-tetrahydrothiopyranylamino)benzoic acid]"
2000 nM,,"CN(c1ccc(Cl)cc1)c1ccc(C(=O)c2ccc(N3CCC(C(F)(F)F)CC3)c(C(=O)O)c2)nc1 [2:22, 5-{5-[(4-Chlorophenyl)(methyl)amino]picolinoyl}-2-(4-trifluoromethyl-1-piperidinyl)benzoic acid]"
33 nM,100%,"CN(c1ccc(Cl)cc1)c1ccc(C(=O)c2ccc(NC(=O)c3ccc(C(F)(F)F)cc3)c(C(=O)O)c2)nc1 [3:1, 5-{5-[(4-Chlorophenyl)(methyl)amino]picolinoyl}-2-(4-trifluoromethylbenzamido)-benzoic acid]"
25 nM,100%,"CN(c1ccc(Cl)cc1)c1ccc(C(=O)c2ccc(NC(=O)c3cc(Cl)ccc3O)c(C(=O)O)c2)nc1 [3:2, 2-(5-Chloro-2-hydroxybenzamido)-5-{5-[(4-chlorophenyl)(methyl)amino]-picolinoyl}benzoic acid]"
34 nM,,"CN(c1ccc(Cl)cc1)c1ccc(C(=O)c2ccc(NC(=O)c3ccccc3)c(C(=O)O)c2)nc1 [3:3, 2-Benzamido-5-{5-[(4-chlorophenyl)(methyl)amino]picolinoyl}benzoic acid]"
32 nM,,"COc1ccccc1C(=O)Nc1ccc(C(=O)c2ccc(N(C)c3ccc(Cl)cc3)cn2)cc1C(=O)O [3:5, 5-{5-[(4-Chlorophenyl)(methyl)amino]picolinoyl}-2-(2-methoxybenzamido)-benzoic acid]"
11 nM,,"CN(c1ccc(Cl)cc1)c1ccc(C(=O)c2ccc(NC(=O)c3ccc4c(c3)OCO4)c(C(=O)O)c2)nc1 [3:6, 5-{5-[(4-Chlorophenyl)(methyl)amino]picolinoyl}-2-(3,4-methylenedioxy-benzamido)benzoic acid]"
21 nM,,"O=C(Nc1ccc(C(=O)c2ccc(N(CC3CC3)c3ccc(Cl)cc3)cn2)cc1C(=O)O)c1ccc2c(c1)OCO2 [3:9, 5-{5-[(4-Chlorophenyl)(cyclopropylmethyl)amino]picolinoyl}-2-(3,4-methylene-dioxybenzamido)benzoic acid]"
67 nM,,"CN(c1ccc(Cl)cc1)c1ccc(C(=O)c2ccc(NC(=O)c3ccc(S(C)(=O)=O)cc3)c(C(=O)O)c2)nc1 [3:14, 5-{5-[(4-Chlorophenyl)(methyl)amino]picolinoyl}-2-(4-methylsulfonyl-benzamido)benzoic acid]"
157 nM,,"COc1cc(C(=O)Nc2ccc(C(=O)c3ccc(N(C)c4ccc(Cl)cc4)cn3)cc2C(=O)O)cc(OC)c1OC [3:16, 5-{5-[(4-Chlorophenyl)(methyl)amino]picolinoyl}-2-(3,4,5-trimethoxybenz-amido)benzoic acid]"
16 nM,,"COc1ccc(C(=O)Nc2ccc(C(=O)c3ccc(N(CC4CC4)c4ccc(Cl)cc4)cn3)cc2C(=O)O)c(OC)c1 [3:22, 5-{5-[(4-Chlorophenyl)(cyclopropylmethyl)amino]picolinoyl}-2-(2,4-dimethoxy-benzamido)benzoic acid]"
16 nM,,"O=C(Nc1ccc(C(=O)c2ccc(N(CC3CC3)c3ccc(Cl)cc3)cn2)cc1C(=O)O)c1ccc2c(c1)OC(F)(F)O2 [3:24, 5-{5-[(4-Chlorophenyl)(cyclopropylmethyl)amino]picolinoyl}-2-[3,4-(difluoromethylenedioxy)benzamido]benzoic acid]"
11 nM,,"O=C(Nc1ccc(C(=O)c2ccc(N(CC3CC3)c3ccc(Cl)cc3)cn2)cc1C(=O)O)c1ccc2c(c1)OCCO2 [3:25, 5-{5-[(4-Chlorophenyl)(cyclopropylmethyl)amino]picolinoyl}-2-(3,4-ethylene-dioxybenzamido)benzoic acid]"
37 nM,,"COc1ccc(C(=O)Nc2ccc(C(=O)c3ccc(N(C)c4ccc(Cl)cc4)cn3)cc2C(=O)O)cc1OC [3:26, 5-{5-[(4-Chlorophenyl)(methyl)amino]picolinoyl}-2-(3,4-dimethoxybenzamido)-benzoic acid]"
40 nM,,"COc1cccc(C(=O)Nc2ccc(C(=O)c3ccc(N(C)c4ccc(Cl)cc4)cn3)cc2C(=O)O)c1OC [3:27, 5-{5-[(4-Chlorophenyl)(methyl)amino]picolinoyl}-2-(2,3-dimethoxybenzamido)-benzoic acid]"

# More lines, now with the values behind:
SMILES,IC50,inhibition at 10 µM
"CN(c1ccc(Cl)cc1)c1ccc(C(=O)c2ccc(NC3CCS(=O)(=O)CC3)c(C(=O)O)c2)nc1 [2:20, 5-{5-[(4-Chlorophenyl)(methyl)amino]picolinoyl}-2-(1,1-dioxotetrahydrothiopyran-4-ylamino)benzoic acid]",658 nM,
"CN(c1ccc(Cl)cc1)c1ccc(C(=O)c2ccc(Nc3ccccc3)c(C(=O)O)c2)nc1 [2:21, 5-{5-[(4-Chlorophenyl)(methyl)amino]picolinoyl}-2-phenylaminobenzoic acid]",139 nM,
"COc1ccc(C(=O)Nc2ccc(C(=O)c3ccc(N(C)c4ccc(Cl)cc4)cn3)cc2C(=O)O)cc1 [3:4, 5-{5-[(4-Chlorophenyl)(methyl)amino]picolinoyl}-2-(4-methoxybenzamido)-benzoic acid]",23 nM,
"COc1ccc(C(=O)Nc2ccc(C(=O)c3ccc(N(CC4CC4)c4ccc(Cl)cc4)cn3)cc2C(=O)O)cc1 [3:7, 5-{5-[(4-Chlorophenyl)(cyclopropylmethyl)amino]picolinoyl}-2-(4-methoxy-benzamido)benzoic acid]",31 nM,
"COc1ccccc1C(=O)Nc1ccc(C(=O)c2ccc(N(CC3CC3)c3ccc(Cl)cc3)cn2)cc1C(=O)O [3:8, 5-{5-[(4-Chlorophenyl)(cyclopropylmethyl)amino]picolinoyl}-2-(2-methoxy-benzamido)benzoic acid]",40 nM,
"COc1cccc(C(=O)Nc2ccc(C(=O)c3ccc(N(C)c4ccc(Cl)cc4)cn3)cc2C(=O)O)c1 [3:10, 5-{5-[(4-Chlorophenyl)(methyl)amino]picolinoyl}-2-(3-methoxybenzamido)-benzoic acid]",24 nM,
"CN(c1ccc(Cl)cc1)c1ccc(C(=O)c2ccc(NC(=O)c3ccc(OC(F)(F)F)cc3)c(C(=O)O)c2)nc1 [3:11, 5-{5-[(4-Chlorophenyl)(methyl)amino]picolinoyl}-2-(4-trifluoromethoxy-benzamido)benzoic acid]",44 nM,
"CN(c1ccc(Cl)cc1)c1ccc(C(=O)c2ccc(NC(=O)c3ccccc3OC(F)(F)F)c(C(=O)O)c2)nc1 [3:12, 5-{5-[(4-Chlorophenyl)(methyl)amino]picolinoyl}-2-(2-trifluoromethoxy-benzamido)benzoic acid]",104 nM,
"COc1ccc(C(=O)Nc2ccc(C(=O)c3ccc(N(C)c4ccc(Cl)cc4)cn3)cc2C(=O)O)c(OC)c1 [3:13, 5-{5-[(4-Chlorophenyl)(methyl)amino]picolinoyl}-2-(2,4-dimethoxy-benzamido)benzoic acid]",23 nM,
"CN(c1ccc(Cl)cc1)c1ccc(C(=O)c2ccc(NC(=O)c3ccc(S(=O)(=O)N(C)C)cc3)c(C(=O)O)c2)nc1 [3:15, 5-{5-[(4-Chlorophenyl)(methyl)amino]picolinoyl}-2-(4-dimethylsulfamoyl-benzamido)benzoic acid]",41 nM,
"CN(c1ccc(Cl)cc1)c1ccc(C(=O)c2ccc(NC(=O)c3ccc4c(c3)OC(F)(F)O4)c(C(=O)O)c2)nc1 [3:17, 5-{5-[(4-Chlorophenyl)(methyl)amino]picolinoyl}-2-[3,4-(difluoromethylene-dioxy)benzamido]benzoic acid]",38 nM,
"CN(c1ccc(Cl)cc1)c1ccc(C(=O)c2ccc(NC(=O)c3cccc4c3OC(F)(F)O4)c(C(=O)O)c2)nc1 [3:18, 5-{5-[(4-Chlorophenyl)(methyl)amino]picolinoyl}-2-[2,3-(difluoromethylene-dioxy)benzamido]benzoic acid]",112 nM,
"CN(c1ccc(Cl)cc1)c1ccc(C(=O)c2ccc(NC(=O)c3ccc4c(c3)OCCO4)c(C(=O)O)c2)nc1 [3:19, 5-{5-[(4-Chlorophenyl)(methyl)amino]picolinoyl}-2-(3,4-ethylenedioxy-benzamido)benzoic acid]",17 nM,
"CN(c1ccc(Cl)cc1)c1ccc(C(=O)c2ccc(NC(=O)c3ccccc3C#N)c(C(=O)O)c2)nc1 [3:20, 5-{5-[(4-Chlorophenyl)(methyl)amino]picolinoyl}-2-(2-cyanobenzamido)benzoic acid]",3000 nM,
"COc1ccc(OC)c(C(=O)Nc2ccc(C(=O)c3ccc(N(C)c4ccc(Cl)cc4)cn3)cc2C(=O)O)c1 [3:21, 5-{5-[(4-Chlorophenyl)(methyl)amino]picolinoyl}-2-(2,5-dimethoxybenzamido)-benzoic acid]",25 nM,
"COc1cccc(C(=O)Nc2ccc(C(=O)c3ccc(N(CC4CC4)c4ccc(Cl)cc4)cn3)cc2C(=O)O)c1 [3:23, 5-{5-[(4-Chlorophenyl)(cyclopropylmethyl)amino]picolinoyl}-2-(3-methoxy-benzamido)benzoic acid]",33 nM,
